Numbers after ± are expanded uncertainties.
Test: xn = mol fraction of the nth substance listed
Conditions: 101 kPa, Liquid

## CN(C)c1ccccc1 [N,N-dimethylaniline] + CCCCCCO
283.15 K, x2 = 0.1009
  mass density: 958.16 ± 3.2 kg/m3
  viscosity: 1.749 ± 0.12 mPa·s
283.15 K, x2 = 0.2017
  mass density: 944.54 ± 3.5 kg/m3
  viscosity: 1.867 ± 0.13 mPa·s
283.15 K, x2 = 0.3022
  mass density: 928.83 ± 3.9 kg/m3
  viscosity: 2.079 ± 0.14 mPa·s
283.15 K, x2 = 0.4025
  mass density: 915.52 ± 4.3 kg/m3
  viscosity: 2.306 ± 0.16 mPa·s
283.15 K, x2 = 0.5026
  mass density: 904.21 ± 4.5 kg/m3
  viscosity: 2.676 ± 0.18 mPa·s
283.15 K, x2 = 0.6025
  mass density: 890.94 ± 4.9 kg/m3
  viscosity: 3.092 ± 0.21 mPa·s
283.15 K, x2 = 0.7022
  mass density: 876.26 ± 5.2 kg/m3
  viscosity: 3.708 ± 0.25 mPa·s
283.15 K, x2 = 0.8016
  mass density: 861.23 ± 5.6 kg/m3
  viscosity: 4.614 ± 0.3 mPa·s
283.15 K, x2 = 0.9009
  mass density: 848.23 ± 5.9 kg/m3
  viscosity: 5.687 ± 0.36 mPa·s
293.15 K, x2 = 0.1009
  mass density: 950 ± 3.4 kg/m3
  viscosity: 1.448 ± 0.1 mPa·s
293.15 K, x2 = 0.2017
  mass density: 936.43 ± 3.8 kg/m3
  viscosity: 1.527 ± 0.11 mPa·s
293.15 K, x2 = 0.3022
  mass density: 920.62 ± 4.1 kg/m3
  viscosity: 1.667 ± 0.12 mPa·s
293.15 K, x2 = 0.4025
  mass density: 909.23 ± 4.4 kg/m3
  viscosity: 1.837 ± 0.13 mPa·s
293.15 K, x2 = 0.5026
  mass density: 896.74 ± 4.7 kg/m3
  viscosity: 2.086 ± 0.14 mPa·s
293.15 K, x2 = 0.6025
  mass density: 882.6 ± 5.1 kg/m3
  viscosity: 2.359 ± 0.16 mPa·s
293.15 K, x2 = 0.7022
  mass density: 868.6 ± 5.4 kg/m3
  viscosity: 2.821 ± 0.19 mPa·s
293.15 K, x2 = 0.8016
  mass density: 852.26 ± 5.8 kg/m3
  viscosity: 3.401 ± 0.23 mPa·s
293.15 K, x2 = 0.9009
  mass density: 841.25 ± 6.1 kg/m3
  viscosity: 4.138 ± 0.27 mPa·s
303.15 K, x2 = 0.1009
  mass density: 942.24 ± 3.6 kg/m3
  viscosity: 1.221 ± 0.088 mPa·s
303.15 K, x2 = 0.2017
  mass density: 928.31 ± 4 kg/m3
  viscosity: 1.276 ± 0.092 mPa·s
303.15 K, x2 = 0.3022
  mass density: 912.67 ± 4.3 kg/m3
  viscosity: 1.38 ± 0.099 mPa·s
303.15 K, x2 = 0.4025
  mass density: 901.18 ± 4.6 kg/m3
  viscosity: 1.496 ± 0.11 mPa·s
303.15 K, x2 = 0.5026
  mass density: 888.09 ± 4.9 kg/m3
  viscosity: 1.668 ± 0.12 mPa·s
303.15 K, x2 = 0.6025
  mass density: 875.63 ± 5.2 kg/m3
  viscosity: 1.891 ± 0.13 mPa·s
303.15 K, x2 = 0.7022
  mass density: 860.74 ± 5.6 kg/m3
  viscosity: 2.16 ± 0.15 mPa·s
303.15 K, x2 = 0.8016
  mass density: 846.02 ± 6 kg/m3
  viscosity: 2.585 ± 0.17 mPa·s
303.15 K, x2 = 0.9009
  mass density: 832.65 ± 6.3 kg/m3
  viscosity: 3.101 ± 0.21 mPa·s
313.15 K, x2 = 0.1009
  mass density: 933.77 ± 3.8 kg/m3
  viscosity: 1.051 ± 0.077 mPa·s
313.15 K, x2 = 0.2017
  mass density: 920.41 ± 4.1 kg/m3
  viscosity: 1.086 ± 0.08 mPa·s
313.15 K, x2 = 0.3022
  mass density: 904.59 ± 4.5 kg/m3
  viscosity: 1.16 ± 0.084 mPa·s
313.15 K, x2 = 0.4025
  mass density: 892.85 ± 4.8 kg/m3
  viscosity: 1.246 ± 0.09 mPa·s
313.15 K, x2 = 0.5026
  mass density: 879.8 ± 5.2 kg/m3
  viscosity: 1.369 ± 0.098 mPa·s
313.15 K, x2 = 0.6025
  mass density: 867.83 ± 5.4 kg/m3
  viscosity: 1.524 ± 0.11 mPa·s
313.15 K, x2 = 0.7022
  mass density: 852.77 ± 5.8 kg/m3
  viscosity: 1.732 ± 0.12 mPa·s
313.15 K, x2 = 0.8016
  mass density: 839.15 ± 6.2 kg/m3
  viscosity: 2.023 ± 0.14 mPa·s
313.15 K, x2 = 0.9009
  mass density: 824.98 ± 6.5 kg/m3
  viscosity: 2.37 ± 0.16 mPa·s
323.15 K, x2 = 0.1009
  mass density: 925.31 ± 4 kg/m3
  viscosity: 0.917 ± 0.069 mPa·s
323.15 K, x2 = 0.2017
  mass density: 912.27 ± 4.3 kg/m3
  viscosity: 0.939 ± 0.07 mPa·s
323.15 K, x2 = 0.3022
  mass density: 896.34 ± 4.7 kg/m3
  viscosity: 0.992 ± 0.074 mPa·s
323.15 K, x2 = 0.4025
  mass density: 885.58 ± 5 kg/m3
  viscosity: 1.056 ± 0.078 mPa·s
323.15 K, x2 = 0.5026
  mass density: 872.2 ± 5.3 kg/m3
  viscosity: 1.138 ± 0.083 mPa·s
323.15 K, x2 = 0.6025
  mass density: 859.03 ± 5.7 kg/m3
  viscosity: 1.269 ± 0.091 mPa·s
323.15 K, x2 = 0.7022
  mass density: 843.94 ± 6 kg/m3
  viscosity: 1.404 ± 0.1 mPa·s
323.15 K, x2 = 0.8016
  mass density: 831.15 ± 6.3 kg/m3
  viscosity: 1.61 ± 0.11 mPa·s
323.15 K, x2 = 0.9009
  mass density: 818.33 ± 6.7 kg/m3
  viscosity: 1.869 ± 0.13 mPa·s
333.15 K, x2 = 0.1009
  mass density: 916.93 ± 4.2 kg/m3
  viscosity: 0.812 ± 0.062 mPa·s
333.15 K, x2 = 0.2017
  mass density: 905.29 ± 4.5 kg/m3
  viscosity: 0.826 ± 0.063 mPa·s
333.15 K, x2 = 0.3022
  mass density: 887.96 ± 5 kg/m3
  viscosity: 0.861 ± 0.065 mPa·s
333.15 K, x2 = 0.4025
  mass density: 876.93 ± 5.2 kg/m3
  viscosity: 0.908 ± 0.068 mPa·s
333.15 K, x2 = 0.5026
  mass density: 864.04 ± 5.5 kg/m3
  viscosity: 0.971 ± 0.072 mPa·s
333.15 K, x2 = 0.6025
  mass density: 849.87 ± 5.9 kg/m3
  viscosity: 1.044 ± 0.077 mPa·s
333.15 K, x2 = 0.7022
  mass density: 837.74 ± 6.2 kg/m3
  viscosity: 1.157 ± 0.084 mPa·s
333.15 K, x2 = 0.8016
  mass density: 823.68 ± 6.5 kg/m3
  viscosity: 1.31 ± 0.094 mPa·s
333.15 K, x2 = 0.9009
  mass density: 810.66 ± 6.9 kg/m3
  viscosity: 1.423 ± 0.1 mPa·s
343.15 K, x2 = 0.1009
  mass density: 909.05 ± 4.4 kg/m3
  viscosity: 0.774 ± 0.06 mPa·s
343.15 K, x2 = 0.2017
  mass density: 895.76 ± 4.8 kg/m3
  viscosity: 0.731 ± 0.057 mPa·s
343.15 K, x2 = 0.3022
  mass density: 880 ± 5.2 kg/m3
  viscosity: 0.737 ± 0.057 mPa·s
343.15 K, x2 = 0.4025
  mass density: 867.83 ± 5.5 kg/m3
  viscosity: 0.79 ± 0.061 mPa·s
343.15 K, x2 = 0.5026
  mass density: 854.24 ± 5.8 kg/m3
  viscosity: 0.83 ± 0.063 mPa·s
343.15 K, x2 = 0.6025
  mass density: 842.51 ± 6.1 kg/m3
  viscosity: 0.902 ± 0.068 mPa·s
343.15 K, x2 = 0.7022
  mass density: 829.06 ± 6.4 kg/m3
  viscosity: 0.973 ± 0.072 mPa·s
343.15 K, x2 = 0.8016
  mass density: 813.99 ± 6.8 kg/m3
  viscosity: 1.08 ± 0.079 mPa·s
343.15 K, x2 = 0.9009
  mass density: 803.44 ± 7 kg/m3
  viscosity: 1.218 ± 0.088 mPa·s

Source: the NIST ThermoML archive (doi:10.1021/je700344f)
